{"source": "patent US20230203096A1", "about": "“EPHA4 TARGETING COMPOUNDS AND METHODS OF USE THEREOF” (priority 2020, published 2023)", "key": {"[1]": {"assay": "In vivo pharmacokinetics and brain exposure", "conditions": "mice; for tissue level at time at 0.5 h / level at 0.5 h / tissue level at time at 24 h / level at 24 h / level at 1 h: mouse; for tissue level at time at 0.5 h / tissue level at time at 24 h: read-out: Amount of compound per mg of wet brain tissue"}, "[2]": {"tested_on": "mouse motor neurons co-cultured with iAstrocytes derived from sALS patients", "assay": "Co-culture of sALS patient derived iAstrocytes and motor neurons (motor neuron survival)", "type": "cell-based", "conditions": "10 μM", "text": "EphA4 has been directly implicated in the progression of ALS in mice models and in human genetic studies. While the mechanisms for onset and progression of ALS remain largely undetermined, astrocytes have been implicated as significant contributors to motor neuron death in both in familial ALS (fALS), that is driven by inactivating mutations within the superoxide dismutase 1 (SOD1) gene and that account for less than 2% of all ALS cases, (Di Giorgio et al., Nat Neurosci, 10 (5): 608-614, (2007); Nagai et al., Nat Neurosci, 10 (5): 615-622, (2007); Yamanaka et al., Nat Neurosci, 11 (3): 251-253, (2008)) and the more common sporadic form of ALS (sALS). […] Recently, it was shown that astrocytes derived from both patient groups are similarly toxic to motor neurons (Haidet-Phillips et al., Nat Biotechnol, 29 (9): 824-828, (2011)).\nInduced Astrocytes were generated by seeding a low quantity of NPCs into astrocyte medium (DMEM media containing 10% FBS and 0.2% N2) for five days. Following differentiation, iAstrocytes were lifted and seeded into a 96 well (10,000 cells per well).\nCells are sorted through a 100 micron tip with sheath pressure of 27. GFP+ motor neurons were seeded in a 96 well plate (10,000 cells per well). Co-cultures were imaged with InCell for up to three days. Motor neurons with neurite outgrowth of greater than 50 um were counted as alive."}, "[3]": {"target": "T1, recombinant EphA4 ligand binding domain (Homo sapiens, UniProt P54764, C204A)", "T1 construct": "His tag (N); made in house; host or cells: E. coli Rosetta-Gami B(DE3), pET15b", "T1 sequence (P54764 29-209 C204A)": "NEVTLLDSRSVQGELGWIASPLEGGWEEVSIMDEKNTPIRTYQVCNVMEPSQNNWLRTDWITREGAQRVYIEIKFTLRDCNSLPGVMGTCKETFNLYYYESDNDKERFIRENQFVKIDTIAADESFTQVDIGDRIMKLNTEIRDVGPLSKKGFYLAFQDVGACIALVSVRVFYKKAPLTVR", "assay": "Isothermal titration calorimetry (ITC) against EphA4-LBD", "conditions": "ITC, EphA4-LBD", "method": "Peptides were synthesized by using standard solid-phase synthesis protocol, using the BAL resin as anchoring for the C-terminal amines. Isothermal Titration Calorimetry (ITC) measurements were performed in a reverse fashion by titrating the protein into the ligand solution. Solution nuclear magnetic resonance (NMR) experiments were conducted on a 700 MHz Bruker Avance spectrometer equipped with a TCI cryoprobe. Each protein sample was dissolved into an NMR tube at a final concentration of 20 μM (1% DMSO-d6) in the presence of 20 μM of each compound.\nThe fragments were transformed into Rosetta-Gami B(DE3) competent cells and grown in LB medium at 37° C. with 100 μg/mL of ampicillin until reaching an OD600 of 0.6-0.7 followed by induction with 0.4 mM IPTG overnight at 20° C. Bacteria were then collected by centrifugation and lysed by sonication at 4° C. […] EphA4 LBD with ^13C^ε/^1H^ε-Met labeled was expressed like previously described but adding a suspension of 100 mg of ^13C^ε/^1H^ε-Methionine in 1 mL of DMSO per liter of LB medium, 10 minutes before induction. […] Transformation, expression, and purification of EphA3-LBD chimera was performed as described above for EphA4-LBD.\nIsothermal titration calorimetry (ITC) measurements were performed using the Affinity ITC Autosampler from TA Instruments (New Castle, Del.). The titrations were performed in a reverse fashion by titrating the protein into the ligand solution. […] The syringe was filled with a 100 μM solution of EphA4-LBD, EphA3-LBD Chimera, or EphA2-LBD, and 20 injections of 2.5 μL each were performed into the cell containing a 20 μM solution of the compounds. The injections were made at 200 s or 400 s intervals with a stirring speed of 75 rpm. All the solutions were kept in the autosampler at 4° C. The analysis of the thermodynamics signatures and for dissociation constant determination was performed by the NanoAnalyze software (TA Instruments, New Castle, Del.) and subsequently exported into Microsoft Excel."}, "EphA4": {"target": "EphA4 (Mus musculus, UniProt Q03137)", "sequence (Q03137 20-986)": "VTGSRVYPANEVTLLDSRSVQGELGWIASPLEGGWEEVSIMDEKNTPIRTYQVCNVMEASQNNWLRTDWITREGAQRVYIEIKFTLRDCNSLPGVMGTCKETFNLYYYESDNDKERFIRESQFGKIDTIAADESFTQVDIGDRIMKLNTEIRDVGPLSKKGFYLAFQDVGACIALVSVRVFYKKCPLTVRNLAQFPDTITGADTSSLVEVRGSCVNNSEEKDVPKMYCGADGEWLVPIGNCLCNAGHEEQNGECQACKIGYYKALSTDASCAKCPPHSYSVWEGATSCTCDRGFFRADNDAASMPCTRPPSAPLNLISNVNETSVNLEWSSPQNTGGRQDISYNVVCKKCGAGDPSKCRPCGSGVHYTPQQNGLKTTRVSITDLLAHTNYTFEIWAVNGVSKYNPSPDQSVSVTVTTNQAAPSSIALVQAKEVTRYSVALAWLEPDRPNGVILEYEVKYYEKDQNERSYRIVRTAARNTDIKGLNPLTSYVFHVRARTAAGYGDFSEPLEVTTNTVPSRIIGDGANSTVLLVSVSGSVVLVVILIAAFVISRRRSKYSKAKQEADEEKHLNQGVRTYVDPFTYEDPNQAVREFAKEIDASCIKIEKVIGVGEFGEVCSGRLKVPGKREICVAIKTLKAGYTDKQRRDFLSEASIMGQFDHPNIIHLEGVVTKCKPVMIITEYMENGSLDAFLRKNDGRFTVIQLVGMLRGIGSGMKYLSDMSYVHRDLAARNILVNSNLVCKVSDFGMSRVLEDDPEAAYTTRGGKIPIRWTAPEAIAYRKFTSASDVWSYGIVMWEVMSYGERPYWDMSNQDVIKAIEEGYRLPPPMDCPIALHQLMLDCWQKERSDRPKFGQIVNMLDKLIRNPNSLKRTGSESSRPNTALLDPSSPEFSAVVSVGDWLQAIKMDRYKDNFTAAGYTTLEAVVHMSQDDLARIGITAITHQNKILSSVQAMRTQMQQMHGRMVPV", "assay": "EphA4 phosphorylation in primary spinal cord motor neurons (IP/western blot)", "conditions": "1 μM or 10 μM, 30 min"}, "[4]": {"tested_on": "primary spinal cord motor neurons", "assay": "Growth cone collapse in primary spinal cord motor neurons", "conditions": "1 μM and 10 μM 150D4, 2 DIV neurons"}, "[5]": {"target": "T2, ^13C^ε-Met-labeled EphA4-LBD (Homo sapiens, UniProt P54764, C204A)", "T2 construct": "His tag (N); made in house; host or cells: E. coli Rosetta-Gami B(DE3), pET15b", "T2 sequence (P54764 29-209 C204A)": "as the sequence (P54764 29-209 C204A) above", "assay": "2D [13C,1H] HSQC NMR chemical shift perturbation of Met resonances", "type": "binding", "method": "Peptides were synthesized by using standard solid-phase synthesis protocol, using the BAL resin as anchoring for the C-terminal amines. Isothermal Titration Calorimetry (ITC) measurements were performed in a reverse fashion by titrating the protein into the ligand solution. Solution nuclear magnetic resonance (NMR) experiments were conducted on a 700 MHz Bruker Avance spectrometer equipped with a TCI cryoprobe. […]\n2D [^13C,^1H] correlation NMR spectra measured with such protein targets, collected in absence or presence of test ligands can be used to monitor ligand binding and make, albeit qualitative, determinations on possible conformational changes induced by test ligands on the protein target. […] In targeting EphA4, an important aspect regarding the activity of its ligands is whether these agents could be predicted to work as antagonists or agonists.\nNMR spectra were acquired on Bruker Avance III 700 MHz spectrometer equipped with a TCI cryoprobe. All NMR data were processed and analyzed using TOPSPIN 3.6.1 (Bruker, Billerica, Mass., USA).\nChemical shift changes (A) in the 2D [^13C, ^1H] spectra were calculated as weight average perturbations observed in the ^1H and ^13C dimensions using the following Equation: […]"}, "EphA3-LBD Chimera": {"target": "EphA3-LBD Chimera (Homo sapiens, UniProt P54764, C204A/E77D/G52H/I159L/I59G/M164L/M60V/R37K/V157M)", "sequence (P54764 29-209 R37K/G52H/I59G/M60V/E77D/V157M/I159L/M164L/C204A)": "as the sequence (P54764 29-209 C204A) above, with R9K, G24H, I31G, M32V, E49D, V129M, I131L, M136L counted along it", "assay": "Isothermal titration calorimetry (ITC) against EphA3-LBD chimera", "conditions": "listed as 150D4", "experimental": "Isothermal titration calorimetry (ITC) measurements were performed using the Affinity ITC Autosampler from TA Instruments (New Castle, Del.). The titrations were performed in a reverse fashion by titrating the protein into the ligand solution. […] The injections were made at 200 s or 400 s intervals with a stirring speed of 75 rpm. All the solutions were kept in the autosampler at 4° C. The analysis of the thermodynamics signatures and for dissociation constant determination was performed by the NanoAnalyze software (TA Instruments, New Castle, Del.) and subsequently exported into Microsoft Excel."}, "Aqueous solubility": {"assay": "Aqueous solubility", "type": "physicochemical"}, "[6]": {"conditions": "test ligands at 40 μM, EphA4-LDB at 20 μM, Table 8"}}, "note": "“Also recorded” adds a separate entry of the source. Read-outs that look alike come from different tables or passages of the source. Square brackets hold non-standard residues; d marks the D form. Peptide text beside a SMILES is read from it. * marks the point of attachment. Cyclohexanoyl(1S,3S-3-NH2) = N[C@H]1CCC[C@H](C(=O)*)C1; Trp(5-OH) = N[C@@H](Cc1c[nH]c2ccc(O)cc12)C(=O)O; NH(4-morpholinophenyl) = c1cc(N2CCOCC2)ccc1N*; Bip = N[C@@H](Cc1ccc(-c2ccccc2)cc1)C(=O)O; hArg = N=C(N)NCCCC[C@H](N)C(=O)O", "data": [{"smiles": "N=C(N)NCCCC[C@H](NC(=O)[C@H](Cc1ccc(-c2ccccc2)cc1)NC(=O)[C@H](Cc1c[nH]c2ccc(O)cc12)NC(=O)[C@H]1CCC[C@H](N)C1)C(=O)NCC(=O)Nc1ccc(N2CCOCC2)cc1", "note": "[Compound 8, (1S,3S)—N—((S)-1-(((S)-3-([1,1′-biphenyl]-4-yl)-1-(((S)-6-guanidino-1-((2-((4-morpholinophenyl)amino)-2-oxoethyl)amino)-1-oxohexan-2-yl)amino)-1-oxopropan-2-yl)amino)-3-(5-hydroxy-1H-indol-3-yl)-1-oxopropan-2-yl)-3-aminocyclohexane-1-carboxamide] ({Cyclohexanoyl(1S,3S-3-NH2)}-[Trp(5-OH)][Bip][hArg]G-{NH(4-morpholinophenyl)})", "values": [{"measurement": "Total extracted brain compound", "setting": "[1]; 10 mg/kg IV, 30 min", "value": 205.6, "unit": "ng"}, {"measurement": "Total extracted brain compound", "setting": "[1]; 10 mg/kg IV, 24 hr", "value": 60, "unit": "ng"}, {"measurement": "Total extracted brain compound", "setting": "[1]; 50 mg/Kg IP, 30 min", "value": 185, "unit": "ng"}, {"measurement": "Total extracted brain compound", "setting": "[1]; 50 mg/Kg IP, 24 hr", "value": 34.7, "unit": "ng"}, {"measurement": "tissue level at time at 0.5 h", "setting": "[1]; brain, 10 mg/kg IV, 30 min", "value": 4730, "unit": "ng/g"}, {"measurement": "level at 0.5 h", "setting": "[1]; brain, 10 mg/kg IV, 30 min, read-out: Brain concentration", "value": 189, "unit": "ng/mL"}, {"measurement": "tissue level at time at 24 h", "setting": "[1]; brain, 10 mg/kg IV, 24 hr", "value": 1360, "unit": "ng/g"}, {"measurement": "level at 24 h", "setting": "[1]; brain, 10 mg/kg IV, 24 hr, read-out: Brain concentration", "value": 54, "unit": "ng/mL"}, {"measurement": "tissue level at time at 0.5 h", "setting": "[1]; brain, 50 mg/Kg IP, 30 min", "value": 4600, "unit": "ng/g"}, {"measurement": "level at 1 h", "setting": "[1]; brain, 50 mg/Kg IP, read-out: Brain concentration", "value": 184, "unit": "ng/mL"}, {"measurement": "tissue level at time at 24 h", "setting": "[1]; brain, 50 mg/Kg IP, 24 hr", "value": 1100, "unit": "ng/g"}, {"measurement": "level at 24 h", "setting": "[1]; brain, 50 mg/Kg IP, 24 hr, read-out: Brain concentration", "value": 45.5, "unit": "ng/mL"}, {"measurement": "level at 0.5 h", "setting": "[1]; plasma, 10 mg/kg IV, 30 min, read-out: Plasma drug concentration", "value": 484, "unit": "ng/mL"}, {"measurement": "level at 24 h", "setting": "[1]; plasma, 10 mg/kg IV, 24 hr, read-out: Plasma drug concentration", "value": 14.2, "unit": "ng/mL"}, {"measurement": "level at 1 h", "setting": "[1]; plasma, 50 mg/Kg IP, read-out: Plasma drug concentration", "value": 7740, "unit": "ng/mL"}, {"measurement": "level at 24 h", "setting": "[1]; plasma, 50 mg/Kg IP, 24 hr, read-out: Plasma drug concentration", "value": 45, "unit": "ng/mL"}, {"measurement": "protection of motor neurons from sALS astrocytes-induced death", "setting": "[2]", "value": "able to protect mouse motor neurons from iAstrocytes derived from sALS patients"}, {"measurement": "-TΔS", "setting": "[3]", "value": -0.88, "unit": "kcal/mol"}, {"measurement": "AH", "setting": "[3]", "value": -8.49, "unit": "kcal/mol"}, {"measurement": "Kd", "setting": "[3]; read-out: Kd (nM)- ITC", "value": 113, "unit": "nM"}, {"measurement": "EphA4 receptor phosphorylation (pEphA4/total EphA4)", "setting": "EphA4", "value": "more significantly active than others"}, {"measurement": "growth cone collapse", "setting": "[4]", "value": "effective in inducing growth cone collapse"}, {"measurement": "chemical shift perturbation of Met 115 (in words)", "setting": "[5]", "value": "no significant perturbations"}, {"measurement": "chemical shift changes of Met 60 and Met 164 (in words)", "setting": "[5]; FIG. 8B", "value": "large chemical shift changes"}, {"measurement": "Δδ ^13C^ϵ/^1H^ϵ Met 164", "setting": "[5]; protein 20 μM, 20 μM of each compound", "value": "++++ (++++ >0.25 ppm)"}, {"measurement": "koff", "setting": "[5]; read-out: estimated upper limit for the off rate for the complex koff", "value": "< 60", "unit": "s⁻¹"}, {"measurement": "Δδ Met 60", "setting": "[5]; [6]", "value": "++ (0.1 ppm < ++ <0.2 ppm)"}, {"measurement": "Δδ Met 115", "setting": "[5]; [6]", "value": "+ (0< + <0.1 ppm)"}, {"measurement": "Δδ Met 164", "setting": "[5]; [6]", "value": "++++ (++++ >0.25 ppm)"}, {"measurement": "binding to EphA3 (in words)", "setting": "EphA3-LBD Chimera", "value": "limited binding; also recorded: markedly reduced affinity"}, {"measurement": "Aqueous Solubility", "setting": "Aqueous solubility", "value": ">50", "unit": "mM"}]}]}
